Laboratory results from patent US11912755B2, “Endostatin fragments and variants for use in treating fibrosis” (iBio, Inc., priority 2015, dated 2024).

How the values were obtained:
[1] = tested on: rabbit ear scar model; details: in vivo; cited from earlier work
[2] = tested on: diabetes/renal fibrosis model; details: rat, in vivo; cited from earlier work
[3] = tested on: human primary lung fibroblasts; details: adenovirally-expressed endostatin; fibroblasts pretreated with TGF-β; cited from earlier work
[4] = tested on: liver fibrosis model; details: mouse, in vivo; cited from earlier work
[5] = tested on: patients with advanced solid tumors; details: daily 1-hour intravenous infusion at doses up to 300 mg/m2; cited from earlier work
[6] = tested on: IPF model; details: rat, in vivo; cited from earlier work
[7] = tested on: TGF-β-induced dermal fibrosis in mouse skin; details: single dose concurrently with TGF-β; cited from earlier work
[8] = tested on: human skin explants; assay: Ex vivo human skin assay, dermal thickness; format: cell-based
Protocol: Ex vivo human skin assays. Human abdominal skin was obtained from corrective plastic surgery. As previously described (Yasuoka et al., The Open Rheumatol J 2008; 2:17-22), subcutaneous fat tissue was removed uniformly and skin tissue was cut into 1.5 cm×1.5 cm sections. The following were injected intradermally in a total volume of 100 μl 1×PBS: rE alone (1-10 μg/ml), endostatin peptides alone (10 μg/ml), rE or endostatin peptides (1-20 μg/ml) in combination with TGF-β (10 ng/ml), and TGF-β alone (10 ng/ml). In some experiments, human skin was first injected with TGF-β for 48 h followed by recombinant endostatin (rE) administration in the same injection site as TGF-β. Explants containing complete epidermal and dermal layers were cultured in an air liquid interface with the epidermal and keratin layers side up and exposed to air. The culture medium was replaced every other day. After 1 or 2 weeks, skin tissue corresponding to an area with 8-mm diameter centered around the injection site was harvested using disposable 8-mm ACUPUNCH® (Acuderm, Inc., Lauderdale, FL). Skin tissue was fixed in 10% formalin prior to embedding in paraffin.
(§1) Measurement of Skin Dermal Thickness. Six μm sections of paraffin-embedded human and mouse skin tissues were stained with hematoxylin and eosin (H&E). In some experiments, sections were stained with Masson trichrome which identifies collagens. Images were taken on a Nikon Eclipse 800 microscope. The thickness of the dermis was measured in 6 random fields of each section using the image/J® software. Data are shown in arbitrary units.

[9] = tested on: TGF-β-induced dermal fibrosis in mouse skin; assay: In vivo TGF-β-induced dermal fibrosis in mouse skin; details: 10 μg/ml intradermal with TGF-β 10 ng/ml; one week
Protocol: In Vivo Mouse Experiments. CB57BL6/J male mice were purchased from The Jackson Laboratory (Bar Harbor, ME). Human rE (10 μg/ml) or Endostatin peptides (10 μg/ml) in combination with TGF-β (10 ng/ml), or TGF-β alone were injected intradermally on the back of mice in a total volume of 100 μl 1×PBS. Mice were injected in two different skin sites and sacrificed one week post-injection. Skin surrounding the injection site was harvested and fixed in 10% formalin prior to embedding in paraffin.
as §1
E4, a peptide representing the carboxy terminus of human endostatin, can attenuate fibrosis triggered by multiple fibrogenic factors. The anti-fibrotic effects of E4 can be detected whether administered concomitantly with or following the fibrogenic trigger. The efficacy of E4 was confirmed in […] pre-clinical models of fibrosis: a) bleomycin-induced dermal fibrosis in vivo in mouse skin, b) TGF-β induced dermal fibrosis in mouse skin, and c) bleomycin-induced pulmonary fibrosis. E4 peptide or a control peptide (E1; representing the amino terminal region of endostatin) were administered at the same time as TGF-β or bleomycin or 3-4 days following TGF-β or bleomycin. Mice were sacrificed one and two weeks after TGF-β-initiation of dermal fibrosis, and two and three weeks after bleomycin-induced pulmonary fibrosis. Two different modes of administration of the E4 peptide were also tested. It was confirmed that intraperitoneal and intratracheal administration was effective. The amount of E4 that was administered was 10 μg/ml in a total volume of 100 μl for skin and IP injections and 50 μl for IT administration.
For these studies, fibrosis was assessed by measurement of dermal thickness on H&E skin sections (skin), assessment of collagen levels by Masson Trichrome staining (skin and lung), and measurement of collagen levels by Sircol assay (lung). Furthermore, to confirm the mechanism by which E4 exerts its anti-fibrotic effects, the production of extra-cellular matrix (ECM) components, the levels of enzymes that promote matrix stabilization and thus accumulation and levels of those that degrade ECM components, and levels of transcription factors downstream of the pro-fibrotic triggers were evaluated. Results were assessed using the unpaired t test and the 3-way ANOVA (for the ID1 data).

Question: Which injury parameters [1] does the source give for Endostatin here?
Answer: reversed injury parameters

Question: What about the injury parameters [2] of the same substance?
Answer: reversed injury parameters

Question: And the “FN and Col1α1 protein levels” value [3]?
Answer: endostatin markedly reduced

Question: And the injury parameters [4]?
Answer: reversed injury parameters

Question: And the tolerability [5]?
Answer: well tolerated

Question: And the injury parameters [6]?
Answer: reversed injury parameters

Question: For “E3: synthetic peptide, SEQ ID NO: 20, amino acids 133-180 of human endostatin (SYCETWRTEAPSATGQASSLLGGRLLGQSAASCHHAYIVLCIENSFMT; E3 amino acid sequence)”, which skin thickness [7] is on record?
Answer: significantly decreased skin

Question: What about the “dermal thickness, baseline effect” value ([8]; injected alone, no TGF-β, rE 1, 5, 10 μg/ml, peptides 10 μg/ml) of the same substance?
Answer: tendency towards reduction

Question: What about the “development of fibrosis as measured by dermal thickness” value ([8]; peptides 10 μg/ml with 10 ng/ml TGF-β, vs TGF-β alone) of the same substance?
Answer: significantly abolished

Question: And the “TGF-β-induced dermal fibrosis (dermal thickness)” value [9]?
Answer: prevented
